The values that follow come from ChEMBL document CHEMBL1921711, “Transformation of quercitols into 4-methylenecyclohex-5-ene-1,2,3-triol derivatives, precursors for the chemical chaperones N-octyl-4-epi-β-valienamine (NOEV) and N-octyl-β-valienamine (NOV)” (Bioorg Med Chem Lett, 2011).

pIC50: −log10 of the molar value. Calls of active or inactive are those of the source. The rule behind the calls is not given here.

Assay [1] has as its target T1, Beta-galactosidase (Bos taurus, UniProt Q58D55).
T1 sequence (Q58D55 whole entry): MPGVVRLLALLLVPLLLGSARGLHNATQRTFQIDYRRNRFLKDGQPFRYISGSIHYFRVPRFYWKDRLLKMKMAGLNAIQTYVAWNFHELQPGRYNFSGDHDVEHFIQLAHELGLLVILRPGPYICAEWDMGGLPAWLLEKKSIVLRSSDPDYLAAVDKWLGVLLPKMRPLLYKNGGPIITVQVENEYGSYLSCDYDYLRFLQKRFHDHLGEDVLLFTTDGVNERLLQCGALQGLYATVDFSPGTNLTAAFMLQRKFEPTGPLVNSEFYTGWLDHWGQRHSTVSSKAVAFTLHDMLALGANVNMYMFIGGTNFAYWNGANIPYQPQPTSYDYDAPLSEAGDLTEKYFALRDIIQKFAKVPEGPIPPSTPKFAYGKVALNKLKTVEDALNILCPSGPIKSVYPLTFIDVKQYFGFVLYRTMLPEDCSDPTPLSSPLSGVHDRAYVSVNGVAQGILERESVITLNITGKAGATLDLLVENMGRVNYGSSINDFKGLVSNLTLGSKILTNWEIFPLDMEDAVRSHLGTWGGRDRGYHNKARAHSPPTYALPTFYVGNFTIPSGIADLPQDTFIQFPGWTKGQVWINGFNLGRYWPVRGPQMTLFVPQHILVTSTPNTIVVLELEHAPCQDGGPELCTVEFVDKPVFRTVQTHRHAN
In words: Inhibition of bovine liver beta-galactosidase by spectrometry.

For assay [2], the target named is T2, Beta-galactosidase (Aspergillus oryzae, UniProt Q2U7N3).
T2 sequence (Q2U7N3 whole entry): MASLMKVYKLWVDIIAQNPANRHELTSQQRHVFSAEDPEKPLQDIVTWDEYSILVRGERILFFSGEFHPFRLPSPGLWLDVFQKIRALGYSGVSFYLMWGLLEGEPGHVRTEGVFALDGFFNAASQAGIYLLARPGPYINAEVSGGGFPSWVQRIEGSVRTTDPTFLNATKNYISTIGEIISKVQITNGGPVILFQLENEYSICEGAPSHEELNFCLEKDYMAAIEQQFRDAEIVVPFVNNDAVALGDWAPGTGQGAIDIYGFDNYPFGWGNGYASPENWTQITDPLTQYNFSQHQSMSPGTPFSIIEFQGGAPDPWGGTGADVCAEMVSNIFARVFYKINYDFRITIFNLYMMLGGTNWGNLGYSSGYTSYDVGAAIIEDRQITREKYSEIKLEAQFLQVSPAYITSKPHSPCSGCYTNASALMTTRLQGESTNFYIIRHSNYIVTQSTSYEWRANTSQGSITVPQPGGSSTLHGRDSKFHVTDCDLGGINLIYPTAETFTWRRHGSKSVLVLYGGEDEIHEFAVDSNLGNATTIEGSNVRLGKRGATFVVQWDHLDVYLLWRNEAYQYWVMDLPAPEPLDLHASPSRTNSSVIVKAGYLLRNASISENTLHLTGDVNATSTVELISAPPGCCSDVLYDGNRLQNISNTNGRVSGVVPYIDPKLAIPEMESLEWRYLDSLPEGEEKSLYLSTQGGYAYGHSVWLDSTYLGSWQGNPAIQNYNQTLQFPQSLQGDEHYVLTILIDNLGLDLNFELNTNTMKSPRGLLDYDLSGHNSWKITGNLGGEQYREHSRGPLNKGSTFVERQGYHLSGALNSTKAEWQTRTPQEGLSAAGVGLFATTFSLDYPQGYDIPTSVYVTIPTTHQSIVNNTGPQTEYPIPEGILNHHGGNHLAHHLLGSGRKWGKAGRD
In words: Inhibition of Aspergillus oryzae beta-galactosidase by spectrometry.

The nature of assay [3]: (§1) Inhibition of almonds beta-glucosidase by spectrometry. Also noted: species or system Prunus dulcis.
The next assay deals with Prunus dulcis. Described as §1.
For another assay, the target named is Alpha-galactosidase (Coffea arabica, UniProt Q42656). In words: Inhibition of green coffee beans alpha-galactosidase by spectrometry.
In another assay the test system is Helix pomatia. The assay is described as follows: Inhibition of helix pomatia beta-mannosidase by spectrometry.
Another assay is filed under the species Homo sapiens. The assay is described as follows: Inhibition of human placental alpha-fucosidase by spectrometry.
A further assay has as its system Canavalia ensiformis. The assay is described as follows: Inhibition of jack beans alpha-mannosidase by spectrometry.

Sequence of Alpha-galactosidase (Q42656 whole entry): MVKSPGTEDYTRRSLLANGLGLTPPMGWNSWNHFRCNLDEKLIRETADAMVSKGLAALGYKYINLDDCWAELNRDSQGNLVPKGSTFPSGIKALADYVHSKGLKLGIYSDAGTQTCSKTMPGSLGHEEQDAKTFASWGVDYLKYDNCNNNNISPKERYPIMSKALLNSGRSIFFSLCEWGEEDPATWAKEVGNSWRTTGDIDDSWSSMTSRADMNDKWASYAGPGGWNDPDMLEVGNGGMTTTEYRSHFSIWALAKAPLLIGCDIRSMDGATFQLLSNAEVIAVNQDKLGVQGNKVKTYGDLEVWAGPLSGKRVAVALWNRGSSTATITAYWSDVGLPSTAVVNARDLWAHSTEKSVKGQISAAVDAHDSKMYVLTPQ

For the compound `CCCCCCCCN[C@@H]1C=C(CO)[C@H](O)[C@H](O)[C@H]1O`, the pIC50 on Beta-galactosidase [1] is 5.35; against Beta-galactosidase [2], 4.07; in assay [3], 5.09; against Alpha-galactosidase it was 5.35. Also, in the assay on Prunus dulcis, the inhibition result was “Active”. Besides, the inhibition result in the assay with Helix pomatia, in the assay filed under Homo sapiens and with Canavalia ensiformis was “inactive” in each case.
For the compound `CCCCCCCCN[C@@H]1C=C(CO)[C@@H](O)[C@H](O)[C@H]1O`, the negative logarithm of the IC50 (pIC50) against Beta-galactosidase [1] is 5.54; in assay [3], 4.33; against Alpha-galactosidase, under 3.00.

The term pIC50 denotes the negative decadic logarithm of the IC50, by convention in mol/L.
